Reference: patent US20240398811A1, “PRC2 INHIBITORS FOR USE IN TREATING BLOOD DISORDERS” (ORIC Pharmaceuticals, Inc., priority 2021, published 2024)
pIC50: −log10 of the molar value.

Target: purified human, His-tagged PRC2 complex (Homo sapiens (Human), UniProt O75530)
Test: Hot Spot HMT assay, inhibition of PRC2 enzymatic activity
Assay type: biochemical
Settings: 10 nM PRC2 complex, 1 μM 3H-SAM, core histone H3, 10-point dose-response
Description: The assay uses purified human, His-tagged PRC2 complex, including N-terminal His-tagged EZH2 enzyme, N-terminal Flag-tagged embryonic ectoderm development protein (EED), N-terminal His-tagged suppressor of zeste 12 (SUZ12), N-terminal His-tagged AEBP2, and N-terminal His-tagged RbAp48. In this assay, the transfer of the tritiated methyl group from radiolabeled S-adenosyl methionine (SAM) to purified core histone protein by EZH2 is quantitated after filtration to determine the activity of the core PRC2 complex in the presence and absence of compound.
The initial starting concentration for the serial dilutions of each compound was 1.0 μM. […] SAH (S-(5-adenosyl)-L-homocysteine) was used as a positive control for assay validation.
An aliquot of each serial dilution of test compound was added to deep 384 well plate using Acoustic Technology instrument (Echo 550, LabCyte) containing reaction buffer (50 mM Tris-HCl (pH 8.)), 0.01% Brij35, 1 mM EDTA, 1 mM DTT, 1 mM PMSF and 1% DMSO), 10 nM purified PRC2 complex and 0.05 mg/ml core histone H3 in a 5 μl volume. The reaction was mixed gently and then pre-incubated for 20 min at 30° C. The enzymatic reaction was initiated by adding 1 μM S-Adenosyl-L-[methyl-^3H]methionine and incubated for 1 hr at 30° C. After 1 hr, the reaction product was detected using a filter binding method and the amount of tritiated H3 core histone was quantitated using a scintillation counter. […] Key: A=<100 nM; B=>100 nM-<500 nM; and C=>500 nM.

Chain of purified human, His-tagged PRC2 complex (O75530 whole entry): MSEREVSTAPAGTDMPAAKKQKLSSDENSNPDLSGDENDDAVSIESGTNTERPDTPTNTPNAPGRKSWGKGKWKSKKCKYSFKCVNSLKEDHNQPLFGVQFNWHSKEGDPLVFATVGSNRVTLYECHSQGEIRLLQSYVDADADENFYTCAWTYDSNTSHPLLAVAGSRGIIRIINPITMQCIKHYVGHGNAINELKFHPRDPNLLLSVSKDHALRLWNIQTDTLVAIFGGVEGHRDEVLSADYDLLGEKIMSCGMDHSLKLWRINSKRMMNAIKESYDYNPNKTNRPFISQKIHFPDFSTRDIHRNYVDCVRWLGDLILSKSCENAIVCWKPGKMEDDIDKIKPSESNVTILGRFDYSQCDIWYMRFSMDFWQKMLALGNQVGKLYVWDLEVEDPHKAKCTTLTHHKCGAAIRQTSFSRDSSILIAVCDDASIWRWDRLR
Chain of purified human, His-tagged PRC2 complex (Q15910 whole entry partner): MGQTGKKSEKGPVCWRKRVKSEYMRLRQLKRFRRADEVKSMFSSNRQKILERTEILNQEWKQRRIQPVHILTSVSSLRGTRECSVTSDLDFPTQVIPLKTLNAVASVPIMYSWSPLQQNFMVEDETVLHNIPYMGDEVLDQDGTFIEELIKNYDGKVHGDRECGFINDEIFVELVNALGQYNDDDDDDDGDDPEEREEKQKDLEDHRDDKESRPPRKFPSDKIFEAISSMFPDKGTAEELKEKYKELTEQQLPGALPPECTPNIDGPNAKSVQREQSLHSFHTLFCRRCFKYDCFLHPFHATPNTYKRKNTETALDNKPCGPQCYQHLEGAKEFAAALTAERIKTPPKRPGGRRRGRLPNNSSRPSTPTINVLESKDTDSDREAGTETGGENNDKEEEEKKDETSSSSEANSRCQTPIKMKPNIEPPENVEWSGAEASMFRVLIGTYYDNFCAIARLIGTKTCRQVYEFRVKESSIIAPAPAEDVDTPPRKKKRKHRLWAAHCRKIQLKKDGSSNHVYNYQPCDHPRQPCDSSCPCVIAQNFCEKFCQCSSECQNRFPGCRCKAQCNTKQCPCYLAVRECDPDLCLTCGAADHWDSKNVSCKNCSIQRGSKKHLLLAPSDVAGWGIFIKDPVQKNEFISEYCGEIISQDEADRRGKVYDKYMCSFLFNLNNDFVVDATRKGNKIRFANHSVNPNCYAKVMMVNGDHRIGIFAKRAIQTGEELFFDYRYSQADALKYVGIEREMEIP
Chain of purified human, His-tagged PRC2 complex (Q15022 whole entry partner): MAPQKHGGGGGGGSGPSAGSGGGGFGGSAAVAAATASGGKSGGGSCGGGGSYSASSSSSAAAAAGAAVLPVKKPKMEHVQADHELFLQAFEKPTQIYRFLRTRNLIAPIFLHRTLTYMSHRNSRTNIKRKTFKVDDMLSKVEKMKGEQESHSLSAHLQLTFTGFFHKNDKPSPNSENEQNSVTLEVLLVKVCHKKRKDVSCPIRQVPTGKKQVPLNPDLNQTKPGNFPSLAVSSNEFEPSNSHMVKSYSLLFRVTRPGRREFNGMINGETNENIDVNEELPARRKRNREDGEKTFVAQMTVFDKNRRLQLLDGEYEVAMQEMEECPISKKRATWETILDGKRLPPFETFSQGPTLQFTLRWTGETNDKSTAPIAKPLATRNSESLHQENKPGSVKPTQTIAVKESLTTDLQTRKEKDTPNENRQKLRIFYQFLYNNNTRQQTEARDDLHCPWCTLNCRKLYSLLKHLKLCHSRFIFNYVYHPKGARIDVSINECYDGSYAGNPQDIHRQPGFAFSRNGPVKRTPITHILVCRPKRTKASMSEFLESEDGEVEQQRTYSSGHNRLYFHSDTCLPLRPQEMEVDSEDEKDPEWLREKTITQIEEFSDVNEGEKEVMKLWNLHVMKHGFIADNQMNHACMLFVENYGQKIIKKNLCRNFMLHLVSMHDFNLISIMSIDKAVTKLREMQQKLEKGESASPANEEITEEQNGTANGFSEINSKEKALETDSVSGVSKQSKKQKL
Chain of purified human, His-tagged PRC2 complex (Q6ZN18 whole entry partner): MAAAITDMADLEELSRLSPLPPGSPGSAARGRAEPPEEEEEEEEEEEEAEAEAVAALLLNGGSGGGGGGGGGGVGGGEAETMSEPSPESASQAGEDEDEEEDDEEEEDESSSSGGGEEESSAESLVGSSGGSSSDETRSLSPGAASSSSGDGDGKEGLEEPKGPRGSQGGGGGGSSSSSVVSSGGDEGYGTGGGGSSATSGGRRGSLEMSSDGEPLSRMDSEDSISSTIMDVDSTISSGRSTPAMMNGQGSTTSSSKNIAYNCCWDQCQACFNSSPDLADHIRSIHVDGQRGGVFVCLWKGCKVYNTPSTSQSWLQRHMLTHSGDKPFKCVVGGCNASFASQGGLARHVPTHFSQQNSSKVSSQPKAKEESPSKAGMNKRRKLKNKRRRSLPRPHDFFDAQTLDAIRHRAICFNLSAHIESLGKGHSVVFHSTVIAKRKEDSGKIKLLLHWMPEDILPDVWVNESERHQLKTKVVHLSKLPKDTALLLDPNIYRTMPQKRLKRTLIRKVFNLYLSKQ
Chain of purified human, His-tagged PRC2 complex (Q09028 whole entry partner): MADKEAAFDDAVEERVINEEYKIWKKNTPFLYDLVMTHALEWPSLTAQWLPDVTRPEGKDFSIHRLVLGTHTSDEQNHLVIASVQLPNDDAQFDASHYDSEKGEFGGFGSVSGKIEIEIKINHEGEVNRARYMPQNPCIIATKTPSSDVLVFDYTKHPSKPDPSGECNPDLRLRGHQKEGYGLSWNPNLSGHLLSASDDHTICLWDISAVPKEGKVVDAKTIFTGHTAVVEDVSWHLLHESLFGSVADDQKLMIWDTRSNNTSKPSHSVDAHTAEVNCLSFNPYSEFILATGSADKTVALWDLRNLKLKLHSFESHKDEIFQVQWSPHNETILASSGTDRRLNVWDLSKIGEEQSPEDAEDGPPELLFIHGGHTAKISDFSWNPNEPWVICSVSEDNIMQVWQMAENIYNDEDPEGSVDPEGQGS

SMILES | pIC50
CC(c1ccc(-c2cnc(NCc3c(F)ccc4c3CCO4)n3cc(C#N)nc23)cc1)N1CCCC1 (stereo not shown) [Example 90, 5-(((5-fluoro-2,3-dihydrobenzofuran-4-yl)methyl)amino)-8-(4-(1-(pyrrolidin-1-yl)ethyl)phenyl)imidazo[1,2-c]pyrimidine-2-carbonitrile] | > 7.00
Cc1cc(S(C)(=O)=O)ccc1-c1cnc(NCc2c(F)ccc3c2CCO3)n2cc(C#N)nc12 [Example 87, 5-(((5-fluoro-2,3-dihydrobenzofuran-4-yl)methyl)amino)-8-(2-methyl-4-(methylsulfonyl)phenyl)imidazo[1,2-c]pyrimidine-2-carbonitrile] | > 7.00
COc1cc(C)c(-c2cnc(NCc3c(F)ccc4c3CCO4)n3cc(C(N)=O)nc23)cn1 [Example 14, 5-(((5-fluoro-2,3-dihydrobenzofuran-4-yl)methyl)amino)-8-(6-methoxy-4-methylpyridin-3-yl)imidazo[1,2-c]pyrimidine-2-carboxamide] | 6.30 to 7.00
Cn1nc(C2CC2)cc1-c1cnc(NCc2c(F)ccc3c2CCO3)n2cc(C#N)nc12 [Example 144, 8-(3-cyclopropyl-1-methyl-1H-pyrazol-5-yl)-5-(((5-fluoro-2,3-dihydrobenzofuran-4-yl)methyl)amino)imidazo[1,2-c]pyrimidine-2-carbonitrile] | > 7.00
N#Cc1cn2c(NCc3c(F)ccc4c3CCO4)ncc(-c3cncc(C(F)(F)F)c3)c2n1 [Example 132, 5-(((5-fluoro-2,3-dihydrobenzofuran-4-yl)methyl)amino)-8-(5-(trifluoromethyl)pyridin-3-yl)imidazo[1,2-c]pyrimidine-2-carbonitrile] | < 6.30
CC(C)(O)Cn1cc(-c2cnc(NCc3c(F)ccc4c3CCO4)n3cc(C#N)nc23)cn1 [Example 121, 5-(((5-fluoro-2,3-dihydrobenzofuran-4-yl)methyl)amino)-8-(1-(2-hydroxy-2-methylpropyl)-1H-pyrazol-4-yl)imidazo[1,2-c]pyrimidine-2-carbonitrile] | > 7.00
CN(C)C(=O)c1cc(-c2cnc(NCc3c(F)ccc4c3CCO4)n3cc(C#N)nc23)n(C)n1 [Example 170, 5-(2-cyano-5-(((5-fluoro-2,3-dihydrobenzofuran-4-yl)methyl)amino)imidazo[1,2-c]pyrimidin-8-yl)-N,N,1-trimethyl-1H-pyrazole-3-carboxamide] | > 7.00
N#Cc1cn2c(NCc3c(F)ccc4c3CCO4)ncc(-c3ccccn3)c2n1 [Example 146, 5-(((5-fluoro-2,3-dihydrobenzofuran-4-yl)methyl)amino)-8-(pyridin-2-yl)imidazo[1,2-c]pyrimidine-2-carbonitrile] | 6.30 to 7.00
Cn1cc(-c2cnc(NCc3c(F)ccc4c3CCO4)n3cc(C#N)nc23)c(C#N)n1 [Example 224, 8-(3-cyano-1-methyl-1H-pyrazol-4-yl)-5-(((5-fluoro-2,3-dihydrobenzofuran-4-yl)methyl)amino)imidazo[1,2-c]pyrimidine-2-carbonitrile] | 6.30 to 7.00
CNC(=O)c1cn2c(NCc3c(F)ccc4c3CCO4)ncc(-c3cc(C)nn3C)c2n1 [Example 20, 8-(1,3-dimethyl-1H-pyrazol-5-yl)-5-(((5-fluoro-2,3-dihydrobenzofuran-4-yl)methyl)amino)-N-methylimidazo[1,2-c]pyrimidine-2-carboxamide] | > 7.00
Cc1cc(S(=O)(=O)N(C)C)ccc1-c1cnc(NCc2c(F)ccc3c2CCO3)n2cc(C#N)nc12 [Example 48, 4-(2-cyano-5-(((5-fluoro-2,3-dihydrobenzofuran-4-yl)methyl)amino)imidazo[1,2-c]pyrimidin-8-yl)-N,N,3-trimethylbenzenesulfonamide] | > 7.00
N#Cc1cn2c(NCc3c(F)ccc4c3CCO4)ncc(-c3ccc(N4CCCCC4)nc3)c2n1 [Example 135, 5-(((5-fluoro-2,3-dihydrobenzofuran-4-yl)methyl)amino)-8-(6-(piperidin-1-yl)pyridin-3-yl)imidazo[1,2-c]pyrimidine-2-carbonitrile] | > 7.00
N#Cc1cn2c(NCc3c(F)ccc4c3CCO4)ncc(-c3cnn(CC4CCOC4)c3)c2n1 (stereo not shown) [Example 154, 5-(((5-fluoro-2,3-dihydrobenzofuran-4-yl)methyl)amino)-8-(1-((tetrahydrofuran-3-yl)methyl)-1H-pyrazol-4-yl)imidazo[1,2-c]pyrimidine-2-carbonitrile] | 6.30 to 7.00
COc1ccc(-c2cnc(NCc3c(F)ccc4c3CCO4)n3cc(C#N)nc23)cn1 [Example 94, 5-(((5-fluoro-2,3-dihydrobenzofuran-4-yl)methyl)amino)-8-(6-methoxypyridin-3-yl)imidazo[1,2-c]pyrimidine-2-carbonitrile] | > 7.00
N#Cc1cn2c(NCc3c(F)ccc4c3CCO4)ncc(-c3ccc(CN4CCCC4=O)cc3)c2n1 [Example 49, 5-(((5-fluoro-2,3-dihydrobenzofuran-4-yl)methyl)amino)-8-(4-((2-oxopyrrolidin-1-yl)methyl)phenyl)imidazo[1,2-c]pyrimidine-2-carbonitrile] | > 7.00
CN(C)Cc1ccc(-c2cnc(NCc3c(F)ccc4c3CCO4)n3cc(C#N)nc23)c(Cl)c1 [Example 33, 8-(2-chloro-4-((dimethylamino)methyl)phenyl)-5-(((5-fluoro-2,3-dihydrobenzofuran-4-yl)methyl)amino)imidazo[1,2-c]pyrimidine-2-carbonitrile] | > 7.00
Cc1c(C#N)cccc1-c1cnc(NCc2c(F)ccc3c2CCO3)n2cc(C#N)nc12 [Example 176, 8-(3-cyano-2-methylphenyl)-5-(((5-fluoro-2,3-dihydrobenzofuran-4-yl)methyl)amino)imidazo[1,2-c]pyrimidine-2-carbonitrile] | > 7.00
CN(C)C(=O)c1c(F)cc(-c2cnc(NCc3c(F)ccc4c3CCO4)n3cc(C#N)nc23)cc1F [Example 45, 4-(2-cyano-5-(((5-fluoro-2,3-dihydrobenzofuran-4-yl)methyl)amino)imidazo[1,2-c]pyrimidin-8-yl)-2,6-difluoro-N,N-dimethylbenzamide] | > 7.00
N#Cc1cn2c(NCc3c(F)ccc4c3CCO4)ncc(-c3ccc([C@H]4CCCN4)cc3)c2n1 [Example 220, (R)-5-(((5-fluoro-2,3-dihydrobenzofuran-4-yl)methyl)amino)-8-(4-(pyrrolidin-2-yl)phenyl)imidazo[1,2-c]pyrimidine-2-carbonitrile] | 6.30 to 7.00
N#Cc1cn2c(NCc3c(F)ccc4c3CCO4)ncc(-c3cccnc3)c2n1 [Example 100, 5-(((5-fluoro-2,3-dihydrobenzofuran-4-yl)methyl)amino)-8-(pyridin-3-yl)imidazo[1,2-c]pyrimidine-2-carbonitrile] | > 7.00
N#Cc1cn2c(NCc3c(F)ccc4c3CCO4)ncc(-c3ccc(CN4CCCC4)cc3)c2n1 [Example 74, 5-(((5-fluoro-2,3-dihydrobenzofuran-4-yl)methyl)amino)-8-(4-(pyrrolidin-1-ylmethyl)phenyl)imidazo[1,2-c]pyrimidine-2-carbonitrile] | > 7.00
N#Cc1cncc(-c2cnc(NCc3c(F)ccc4c3CCO4)n3cc(C#N)nc23)c1 [Example 95, 8-(5-cyanopyridin-3-yl)-5-(((5-fluoro-2,3-dihydrobenzofuran-4-yl)methyl)amino)imidazo[1,2-c]pyrimidine-2-carbonitrile] | > 7.00
